Laboratory results published in patent US9199945B2, “Cycloalkyl-substituted pyrimidinedione compounds” (MyoKardia, Inc., priority 2013, dated 2015).
Like-named read-outs stand apart in the source and are kept apart here.

Experiments:
bovine cardiac myosin = target: T1, bovine cardiac myosin (Bos taurus, UniProt Q9BE39); assay: Myosin inhibition assay (PK/LDH-coupled ATPase, bovine cardiac myofibrils); format: biochemical
T1 construct: The source of cardiac myosin was from bovine heart in the form of skinned myofibrils; from tissue; host or cells: bovine heart (skinned myofibrils)
T1 sequence (Q9BE39 whole entry): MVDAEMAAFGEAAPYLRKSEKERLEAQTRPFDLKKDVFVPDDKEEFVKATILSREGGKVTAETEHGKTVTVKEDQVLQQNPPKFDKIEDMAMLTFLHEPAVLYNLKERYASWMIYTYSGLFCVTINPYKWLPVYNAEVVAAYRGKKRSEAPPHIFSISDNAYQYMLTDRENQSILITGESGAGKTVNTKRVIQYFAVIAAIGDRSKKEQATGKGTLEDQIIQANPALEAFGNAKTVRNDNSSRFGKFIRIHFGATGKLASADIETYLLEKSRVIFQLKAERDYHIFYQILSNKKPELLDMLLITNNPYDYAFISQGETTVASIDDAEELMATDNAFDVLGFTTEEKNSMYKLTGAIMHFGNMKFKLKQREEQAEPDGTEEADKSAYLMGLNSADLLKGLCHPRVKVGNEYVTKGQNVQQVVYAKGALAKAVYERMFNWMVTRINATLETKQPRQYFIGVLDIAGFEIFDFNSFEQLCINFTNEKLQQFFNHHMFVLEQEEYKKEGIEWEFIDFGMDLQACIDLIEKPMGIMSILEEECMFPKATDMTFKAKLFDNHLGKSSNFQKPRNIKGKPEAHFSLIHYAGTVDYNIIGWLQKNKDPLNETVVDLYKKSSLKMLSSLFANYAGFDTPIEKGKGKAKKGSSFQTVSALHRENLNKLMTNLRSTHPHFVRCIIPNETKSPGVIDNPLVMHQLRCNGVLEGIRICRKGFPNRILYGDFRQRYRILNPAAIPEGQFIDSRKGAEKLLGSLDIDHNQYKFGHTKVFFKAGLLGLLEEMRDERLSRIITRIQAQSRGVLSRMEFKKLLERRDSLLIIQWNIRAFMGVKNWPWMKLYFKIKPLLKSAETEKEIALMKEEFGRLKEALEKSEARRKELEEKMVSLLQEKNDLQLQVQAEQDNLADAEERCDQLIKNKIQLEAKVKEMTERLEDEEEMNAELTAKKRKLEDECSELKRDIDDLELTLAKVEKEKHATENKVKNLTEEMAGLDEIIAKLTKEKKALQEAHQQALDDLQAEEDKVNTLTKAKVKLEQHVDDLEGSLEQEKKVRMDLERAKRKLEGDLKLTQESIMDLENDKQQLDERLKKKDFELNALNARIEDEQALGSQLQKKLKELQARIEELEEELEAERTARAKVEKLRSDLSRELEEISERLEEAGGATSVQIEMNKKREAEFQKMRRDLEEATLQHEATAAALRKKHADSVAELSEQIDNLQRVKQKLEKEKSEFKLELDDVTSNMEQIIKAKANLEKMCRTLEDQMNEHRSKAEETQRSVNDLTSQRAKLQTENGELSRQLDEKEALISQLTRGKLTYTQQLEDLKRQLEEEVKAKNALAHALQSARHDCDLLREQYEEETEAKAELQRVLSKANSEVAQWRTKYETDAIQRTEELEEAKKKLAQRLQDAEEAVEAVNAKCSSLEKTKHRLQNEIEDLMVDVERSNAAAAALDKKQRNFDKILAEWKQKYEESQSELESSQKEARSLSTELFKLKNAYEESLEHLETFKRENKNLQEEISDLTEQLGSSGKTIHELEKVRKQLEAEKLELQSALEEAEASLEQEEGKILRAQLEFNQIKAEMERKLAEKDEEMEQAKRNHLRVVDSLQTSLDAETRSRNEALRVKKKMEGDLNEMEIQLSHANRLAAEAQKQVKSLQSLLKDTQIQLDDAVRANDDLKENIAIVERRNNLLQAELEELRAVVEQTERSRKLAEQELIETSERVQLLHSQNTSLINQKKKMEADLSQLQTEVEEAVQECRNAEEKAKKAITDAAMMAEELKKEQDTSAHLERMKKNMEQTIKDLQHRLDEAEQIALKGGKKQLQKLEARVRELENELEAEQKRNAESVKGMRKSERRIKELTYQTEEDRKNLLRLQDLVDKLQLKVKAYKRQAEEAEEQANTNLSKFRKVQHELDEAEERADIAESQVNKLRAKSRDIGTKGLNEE
T1 sequence (P85100 whole entry partner): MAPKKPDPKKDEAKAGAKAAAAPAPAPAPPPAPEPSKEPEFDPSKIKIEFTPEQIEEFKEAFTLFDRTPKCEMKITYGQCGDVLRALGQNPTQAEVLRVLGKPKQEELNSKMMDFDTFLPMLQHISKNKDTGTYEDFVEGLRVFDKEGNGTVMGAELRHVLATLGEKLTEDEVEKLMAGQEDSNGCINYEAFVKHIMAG
T1 sequence (Q3SZE5 whole entry partner): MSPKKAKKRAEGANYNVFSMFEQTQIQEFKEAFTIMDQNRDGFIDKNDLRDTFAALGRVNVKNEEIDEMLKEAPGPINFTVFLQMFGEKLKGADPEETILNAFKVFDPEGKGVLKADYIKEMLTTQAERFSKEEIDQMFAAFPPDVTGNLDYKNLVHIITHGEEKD
Description: Small molecule agents were assessed for their ability to inhibit the enzymatic activity of bovine cardiac myosin using a biochemical assay that couples the release of ADP (adenosine diphosphate) from cardiac myosin to an enzymatic coupling system consisting of pyruvate kinase and lactate dehydrogenase (PK/LDH) and monitoring the absorbance decrease of NADH (at 340 nm) as a function of time. PK converts ADP to ATP (adenosine triphosphate) by converting PEP (phosphoenolpyruvate) to pyruvate. Pyruvate is then converted to lactate by LDH by converting NADH (nicotinamide adenine dinucleotide) to NAD (oxidized nicotinamide adenine dinucleotide). The source of cardiac myosin was from bovine heart in the form of skinned myofibrils. Prior to testing small molecule agents, the bovine myofibrils were assessed for their calcium responsiveness and the calcium concentration that achieves either a 50% (pCa50) or 75% (pCa75) activation of the myofibril system was chosen as the final condition for assessing the inhibitory activity of the small molecule agents. All enzymatic activity was measured in a buffered solution containing 12 mM PIPES (piperazine-N,N′-bis(2-ethanesulfonic acid), 2 mM magnesium chloride at pH 6.8 (PM12 buffer). Final assay conditions were 1 mg/mL of bovine cardiac myofibrils, 0.4 mM PK/LDH, 50 uM ATP, 0.1 mg/mL BSA (bovine serum albumin), 10 ppm antifoam, 1 mM DTT, 0.5 mM NADH, 1.5 mM PEP at the desired free calcium concentration required to achieve either 50% or 75% activation of the myofibrils.
A dilution series of compound was created in DMSO such that the final desired concentration of compound would be achieved in a volume of 100 μL with a fixed DMSO concentration of 2% (v/v). Typically 2 μL of the dilution series were added to 96 well plate to achieve an 8 or 12 point dose response. Following the addition of 50 μL of a solution containing bovine cardiac myofibrils, PK/LDH and a solution of calcium (that achieved the desired activation), the enzymatic reaction was started with the addition of 50 μL of a solution containing ATP, PEP and NADH. The reaction progress was followed in a Molecular Devices M5e plate reader at ambient temperature using clear half area plates. The plate reader was configured to read absorbance at 340 nm in kinetics mode for 15 minutes. Data were recorded as the slope of the absorbance response to time. The slopes of the absorbance response as a function of time were normalized to slopes on the plate containing DMSO. This normalized rate was then plotted as a function of small molecule concentration and the data was fitted to a four-parameter fit using GraphPad Prism. The midpoint of this plot is the IC50 and is the concentration at which fifty percent of the total response is inhibited.

[1] = tested on: adult rat ventricular myocytes; assay: Cardiomyocyte contractility assay (fractional shortening, IonOptix edge detection); format: cell-based; conditions: Ventricular myocyte, 1 Hz pacing; for inhibition at 1 µM: 1.0 uM compound
Description: Contractility of adult rat ventricular myocytes is determined by edge detection with an IonOptix contractility system. Aliquots of myocytes in Tyrode buffer (137 mM NaCl, 3.7 mM KCl, 0.5 mM MgCl2, 1.5 mM CaCl2, 4 mM HEPES, 11 mM glucose) are placed in a perfusion chamber (Series 20 RC-27NE; Warner Instruments), allowed to adhere to the coverslip, and then perfused with 37° C. Tyrode buffer. Myocytes are filed stimulated at 1 Hz and 10V. Only myocytes with clear striations, quiescent prior to pacing, with a cell length of 120-180 microns, a basal fractional shortening equal to 3-8% of the cell length, and a contraction velocity greater than 100 microns per second are used for contractility experiments. To determine the response to compounds, myocytes are first perfused for 60 seconds with Tyrodes buffer followed by 5 minutes of compound and a 140 second washout with Tyrodes buffer. Data is continuously recorded using IonOptix software. Contractility data is analyzed using lonwizard software (IonOptix). For each cell, 10-20 contractility transients were averaged and compared under basal (no compound) and compound-treated conditions. Compound activity is measured by effects on fractional shortening (FS), where fractional shortening is the ratio of the peak length of the cell at contraction divided by the basal cell length normalized to 100% for an untreated cell.

[2] = calcium concentration giving 50% activation (pCa50), read-out: Biochemical Activity (pCa50)
[3] = calcium concentration giving 75% activation (pCa75), read-out: Biochemical Activity (pCa75)

Compound | IC50 (bovine cardiac myosin; [3]) [nM] | further results
C[C@@H](CC1CC(F)(F)C1)Nc1cc(=O)n(-c2cc(F)cc(F)c2)c(=O)[nH]1 [Compound 12, (S)-6-((1-(3,3-difluorocyclobutyl)propan-2-yl)amino)-3-(3,5-difluorophenyl)pyrimidine-2,4(1H,3H)-dione] |  | IC50 (bovine cardiac myosin; [2]): 1000 to 15000 nM
CC(C)n1c(=O)cc(NCC2CCC2)[nH]c1=O [Compound 7, 6-((cyclobutylmethyl)amino)-3-isopropylpyrimidine-2,4(1H,3H)-dione] | > 15000 | 
CC(C)n1c(=O)cc(N[C@@H](C)C2CCCCC2)[nH]c1=O [Compound 6, (S)-6-((1-cyclohexylethyl)amino)-3-isopropylpyrimidine-2,4(1H,3H)-dione] | < 1000 | 
CC(C)n1c(=O)cc(NCC2CCCCC2)[nH]c1=O [Compound 1, 6-((cyclohexylmethyl)amino)-3-isopropylpyrimidine-2,4(1H,3H)-dione] | 1000 to 15000 | 
CC(C)n1c(=O)cc(NCC2CCCCCC2)[nH]c1=O [Compound 8, 6-((cycloheptylmethyl)amino)-3-isopropylpyrimidine-2,4(1H,3H)-dione] | < 1000 | 
CC(C)n1c(=O)cc(NCCC2CCOCC2)[nH]c1=O [Compound 13, 3-isopropyl-6-((2-(tetrahydro-2H-pyran-4-yl)ethyl)amino) pyrimidine-2,4(1H,3H)-dione] | > 15000 | 
C[C@H](Nc1cc(=O)n(C2CCN(S(C)(=O)=O)CC2)c(=O)[nH]1)C1CCCCC1 [Compound 15, (S)-6-((1-cyclohexylethyl)amino)-3-(1-(methylsulfonyl)piperidin-4-yl)pyrimidine-2,4(1H,3H)-dione] | < 1000 | 
CC(C)n1c(=O)cc(NCC2CCCC2)[nH]c1=O [Compound 2, 6-((Cyclopentylmethyl)amino)-3-isopropylpyrimidine-2,4(1H,3H)-dione] | > 15000 | 
C[C@@H](CC1CCC(F)(F)CC1)Nc1cc(=O)n(-c2cc(F)cc(F)c2)c(=O)[nH]1 [Compound 11, (S)-6-((1-(4,4-difluorocyclohexyl)propan-2-yl)amino)-3-(3,5-difluorophenyl)pyrimidine-2,4(1H,3H)-dione] |  | IC50 (bovine cardiac myosin; [2]): < 1000 nM
CC(C)n1c(=O)cc(N[C@@H](C)C2CCC(F)(F)CC2)[nH]c1=O [Compound 9, (S)-6-((1-(4,4-difluorocyclohexyl)ethyl)amino)-3-isopropylpyrimidine-2,4(1H,3H)-dione] | < 1000 | inhibition at 1 µM [1]: > 66%
CC(C)n1c(=O)[nH]c(N[C@@H](C)C2CCC(F)(F)CC2)c(F)c1=O [Compound 5, (S)-6-((1-(4,4-difluorocyclohexyl)ethyl)amino)-5-fluoro-3-isopropylpyrimidine-2,4(1H,3H)-dione] | < 1000 | inhibition at 1 µM [1]: 33 to 66%
C[C@H](Nc1cc(=O)n(C2CCOCC2)c(=O)[nH]1)C1CCC(F)(F)CC1 [Compound 4, (S)-6-((1-(4,4-difluorocyclohexyl)ethyl)amino)-3-(tetrahydro-2H-pyran-4-yl)pyrimidine-2,4(1H,3H)-dione] | 1000 to 15000 | 
CC(C)n1c(=O)cc(N[C@@H](C)CC2CCOCC2)[nH]c1=O [Compound 14, (S)-3-isopropyl-6-((1-(tetrahydro-2H-pyran-4-yl)propan-2-yl)amino)pyrimidine-2,4(1H,3H)-dione] | 1000 to 15000 | 
CC(C)n1c(=O)cc(N[C@@H](C)CC2CC(F)(F)C2)[nH]c1=O [Compound 10, (S)-6-((1-(3,3-difluorocyclobutyl)propan-2-yl)amino)-3-isopropylpyrimidine-2,4(1H,3H)-dione] | 1000 to 15000 | 
CC(C)n1c(=O)cc(N[C@@H](C)CC2CCC(F)(F)CC2)[nH]c1=O [Compound 3, (S)-6-((1-(4,4-Difluorocyclohexyl)propan-2-yl)amino)-3-isopropylpyrimidine-2,4(1H,3H)-dione] | < 1000 | inhibition at 0.3 µM ([1]; 0.3 uM compound): > 66%
